Measured values: patent US20240238274A1, “INHIBITORS OF UBIQUITIN SPECIFIC PEPTIDASE 22 (USP22) AND USES THEREOF FOR TREATING DISEASE AND DISORDERS” (Northwestern University, priority 2021, published 2024)

How the values were obtained:
USP22 = target: T1, USP22 (Mus musculus, UniProt Q5DU02); assay: Biological screening of the 25 chemicals, FOXP3 MFI reduction as readout; format: cell-based; conditions: biological validation of the 25 chemicals
T1 construct: endogenous in cells; probably murine iTreg
T1 sequence (Q5DU02 1-525): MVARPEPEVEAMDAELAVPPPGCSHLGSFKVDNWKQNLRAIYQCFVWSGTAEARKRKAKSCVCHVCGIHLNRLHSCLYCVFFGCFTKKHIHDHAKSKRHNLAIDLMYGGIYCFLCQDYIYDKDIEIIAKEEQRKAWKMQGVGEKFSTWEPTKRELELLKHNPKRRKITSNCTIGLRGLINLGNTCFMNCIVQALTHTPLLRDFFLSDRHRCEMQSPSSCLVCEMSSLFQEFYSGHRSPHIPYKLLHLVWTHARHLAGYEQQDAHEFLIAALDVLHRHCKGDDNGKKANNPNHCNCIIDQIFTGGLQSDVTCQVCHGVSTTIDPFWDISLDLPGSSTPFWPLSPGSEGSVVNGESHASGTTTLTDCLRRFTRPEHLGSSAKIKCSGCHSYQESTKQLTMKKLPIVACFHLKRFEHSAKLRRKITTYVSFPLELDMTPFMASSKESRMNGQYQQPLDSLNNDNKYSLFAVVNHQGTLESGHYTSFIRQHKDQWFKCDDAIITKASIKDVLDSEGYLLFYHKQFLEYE
T1 sequence (A2AWT3 1-347 partner): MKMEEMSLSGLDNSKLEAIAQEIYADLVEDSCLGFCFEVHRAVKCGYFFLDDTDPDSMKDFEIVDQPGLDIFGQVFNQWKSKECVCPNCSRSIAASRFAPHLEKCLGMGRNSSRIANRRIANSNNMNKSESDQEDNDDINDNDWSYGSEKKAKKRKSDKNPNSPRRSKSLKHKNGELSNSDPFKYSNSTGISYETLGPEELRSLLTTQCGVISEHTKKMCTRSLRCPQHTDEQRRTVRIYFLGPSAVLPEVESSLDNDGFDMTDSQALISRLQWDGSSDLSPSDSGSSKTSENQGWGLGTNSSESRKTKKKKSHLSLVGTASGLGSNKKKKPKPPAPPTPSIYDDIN
T1 sequence (Q9JIX0 1-101 partner): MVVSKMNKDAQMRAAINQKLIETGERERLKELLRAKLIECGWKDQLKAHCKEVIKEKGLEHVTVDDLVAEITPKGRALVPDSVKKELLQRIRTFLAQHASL
From the text: We then used both Lipinski's Rule and Veber's Rule to filter through the Specs database and found a total of 240K compounds binding to the catalytic pocket of our Usp22 model. We then filtered the top 100 compounds ranked by docking affinity by MD and MM/PBSA methods and were left with 25 compounds (Table 1). This limited number of compounds allowed us for further biological screening. As USP22 suppression leads to dramatic reduction in FOXP3 expression levels, we utilized FOXP3 MFI reduction as a readout for the biological validation of USP22 inhibitory efficacy by each of the 25 chemicals. […] The compound S02, structure shown in FIG. 6A, bound stably in the USP22 catalytic domain pocket shown by the RMSD trajectory (FIG. 14E) with strong binding energies to our USP22-md model (FIG. 14F). […] Therefore, future generations of Usp22 inhibitors should take into considerations not only the hydrophobic residues, but also the interaction between the inhibitor and the charged and polar residues on the surface of the binding pocket.

LLC1 cells = LLC1 cells in vitro: counts, viability, growth; format: cell-based
Protocol: FIG. 17: Usp22i-S02 inhibits tumor growth in vitro and in vivo. A, In vitro counts of LLC1 after treatment with Usp22i-S02 under various concentrations for 24 hours (n=2). B, In vitro viability of LLC1 after treatment with Usp22i-S02 under various concentrations for 24 hours (n=2). C, In vitro relative growth of LLC1 cells treated with 10 ug/ml of Usp22i-S02 relative to DMSO treated control for 7 days via OD600 (n=4). D, Growth curve of 1 million subcutaneously injected LLC1 cells into RAG−/− mice treated for 3 days Usp22i-S02 relative to DMSO control injections at day 15 of tumor growth (n=4). C-D, Two-way ANOVA with Sidaks's multiple comparisons between rows relative to control was performed to determine statistical significance. All data are presented as mean±stdev. NS, not significant. *P<0.05, **P<0.01, ***P<0.001, ****P<0.0001.
As Usp22 is also an important oncogene (43, 44), we were interested in the potential dual-therapeutic function of Usp22i-S02.

N#Cc1c2c(c(Nc3ccccc3)n3c1nc1ccccc13)CCCC2 [Chemical S02, 11-anilino-7,8,9,10-tetrahydro-benzimidazo [1,2-b] isoquinoline-6-carbonitrile]
efficacy in downregulating FOXP3 expression (USP22): strong efficacy in downregulating FOXP3 expression
tumor cell counts, viability and growth (LLC1 cells): decreased tumor cell counts, viability, and growth
